The experiment concerns HUVEC and M1 macrophages+Zymosan (TLR2 ligand). The experiment can be described thus: BioMAP IMphg system. The conditions noted are these: CD14+ derived macrophages; PF-06650833 19-500 nM. The experiment is classed as cell-based, human. The source says:
The BioMAP systems consist of human primary cell-based systems designed to model different aspects of the human body in an in vitro format. The 12 systems tested characterized the test compounds across a broad set of systems modeling various human disease states. BioMAP systems were constructed with one or more primary cell types from healthy human donors, with stimuli (such as cytokines or growth factors) added to capture relevant signaling networks that naturally occur in human tissue or pathological conditions. […] Soluble factors from supernatants were quantified using either HTRF® detection, bead-based multiplex immunoassay or capture ELISA. Overt adverse effects of test agents on cell proliferation and viability (cytotoxicity) were detected by sulforhodamine B (SRB) staining, for adherent cells, and alamarBlue® reduction for cells in suspension. […] Each tested compound generated a signature BioMAP profile that was created from the changes in protein biomarker readouts within individual system environments. […] Each readout was measured quantitatively by immune-based methods that detected protein (e.g., ELISA) or functional assays that measured proliferation and viability. BioMAP readouts were diverse and included cell surface receptors, cytokines, chemokines, matrix molecules and enzymes. […]

Each structure is given as a SMILES string.

Turning to `CC[C@@H]1[C@H](F)C(=O)N[C@@H]1COc1nccc2cc(C(N)=O)c(OC)cc12` [PF-06650833, 1-(((2S,3S,4S)-3-Ethyl-4-fluoro-5-oxopyrrolidin-2-yl)methoxy)-7-methoxyisoquinoline-6-carboxamide], the “Activity in the IMphg system” value is “no activity was found”.

The record behind these values is patent US20220378707A1, “1-(((2S,3S,4S)-3-ETHYL-4-FLUORO-5-OXOPYRROLIDIN-2-YL)METHOXY)-7-METHOXYISOQUINOLINE-6-CARBOXAMIDE COMBINATIONS AND ORAL DOSAGE FORMS” (Pfizer Inc., priority 2019, published 2022).
